Laboratory results taken from patent US12565491B2, “(Isopropyl-triazolyl)pyridinyl-substituted benzooxazinone or benzothiazinone derivatives and use thereof” (HK INNO.N CORPORATION, priority 2018, dated 2026).

biological target: T1, ASK-1 enzyme (Homo sapiens, UniProt Q99683); test: Inhibitory ability against ASK-1 enzyme activity (ADP-Glo Kinase Assay); assay type: biochemical; conditions: 250 μM ATP, MBP substrate, 30° C. for 40 minutes
T1 construct: purchased Signal Chem M13-11G-10
Procedure: Experimental Example 1: Assay of Inhibitory Ability Against ASK-1 Enzyme Activity (ADP-Glo™ Kinase Assay)
In order to evaluate the inhibitory ability of the compounds of Examples 1 to 25 against ASK-1 enzyme activity, the following experiment was carried out using ADP-Glo™ (Promega, Cat. No. V9101). Each of the compounds was prepared into a solution at concentrations of 0.32 nM, 1.6 nM, 8 nM, 40 nM, 200 nM, 1,000 nM by adding a kinase buffer solution (40 mM Tris, 20 mM MgCl2, 0.1 mg/mL bovine serum albumin in H2O). Subsequently, 250 μM of ATP (Promega, Cat. No. V915A) and 0.5 g/L of MBP substrate (Signal Chem, Cat. No. 42-51N) were added thereto, and the mixture was reacted at 30° C. for 40 minutes in the presence of 15 ng of ASK-1 enzyme (Signal Chem, Cat. No. M13-11G-10). Then, the ADP-Glo™ reagent and a kinase detection reagent were sequentially added thereto and reacted for 40 minutes and 10 minutes, respectively. After completion of the reaction, luminescence was measured using a Synergy™ NEO microplate reader (BioTEK, NEOB-1311189).
The inhibitory ability of the compounds of Examples 1 to 25 against ASK-1 enzyme activity was verified by analyzing data from the measured RLU values. Specifically, the inhibitory ability against ASK-1 enzyme activity was assessed by deriving the residual activity percentage of the ASK-1 enzyme in the samples treated with the compounds at the concentration to be tested, while using the RLU value of the sample not treated with the compounds as a 100% control.

T1 sequence (Q99683 649-946 limits assumed): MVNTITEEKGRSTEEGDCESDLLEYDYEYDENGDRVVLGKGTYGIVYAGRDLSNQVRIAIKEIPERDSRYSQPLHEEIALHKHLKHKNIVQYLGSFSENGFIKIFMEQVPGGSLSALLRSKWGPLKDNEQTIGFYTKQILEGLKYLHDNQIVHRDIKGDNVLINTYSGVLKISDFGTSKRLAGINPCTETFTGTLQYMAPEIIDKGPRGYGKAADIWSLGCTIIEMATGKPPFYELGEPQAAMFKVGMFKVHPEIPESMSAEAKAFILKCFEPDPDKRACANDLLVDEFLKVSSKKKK

**Q.** How did the IC50 turn out when `CC(C)n1cnnc1-c1cccc(N2COc3ccc(-c4ccc(S(C)(=O)=O)cc4)cc3C2=O)n1` [Example 2, 3-(6-(4-isopropyl-4H-1,2,4-triazol-3-yl)pyridin-2-yl)-6-(4-(methylsulfonyl)phenyl)-2,3-dihydro-4H-benzo[e][1,3]oxazin-4-one] was run?
**A.** The IC50 was 50 nM.

**Q.** `CC(C)Cn1cc(-c2ccc3c(c2)C(=O)N(c2cccc(-c4nncn4C(C)C)n2)CO3)cn1` [Example 9, 6-(1-isobutyl-1H-pyrazol-4-yl)-3-(6-(4-isopropyl-4H-1,2,4-triazol-3-yl)pyridin-2-yl)-2,3-dihydro-4H-benzo[e][1,3]oxazin-4-one] was tested. Which IC50 did it give?
**A.** The IC50 was 11 nM.

**Q.** How did the IC50 turn out when `CC(C)n1cnnc1-c1cccc(N2CSc3ccc(-c4cnn(C5CC5)c4)cc3C2=O)n1` [Example 24, 6-(1-cyclopropyl-1H-pyrazol-4-yl)-3-(6-(4-isopropyl-4H-1,2,4-triazol-3-yl)pyridin-2-yl)-2,3-dihydro-4H-benzo[e][1,3]thiazin-4-one] was run?
**A.** The IC50 was 26.2 nM.

**Q.** `CC(C)n1cnnc1-c1cccc(N2COc3ccc(-c4ccc(C5(C#N)CC5)cc4)cc3C2=O)n1` [Example 12, 1-(4-(3-(6-(4-isopropyl-4H-1,2,4-triazol-3-yl)pyridin-2-yl)-4-oxo-3,4-dihydro-2H-benzo[e][1,3]oxazin-6-yl)phenyl) cyclopropanecarbonitrile] was tested. Which IC50 did it give?
**A.** Its IC50 is 17 nM.

**Q.** For `CC(C)n1cnnc1-c1cccc(N2COc3ccc(-c4cnn(CC5CC5)c4)cc3C2=O)n1` [Example 1, 6-(1-(cyclopropylmethyl)-1H-pyrazol-4-yl)-3-(6-(4-isopropyl-4H-1,2,4-triazol-3-yl)pyridin-2-yl)-2,3-dihydro-4H-benzo[e][1,3]oxazin-4-one], which IC50 is on record?
**A.** The IC50 was 9.3 nM.

**Q.** `Cc1ccnc(Nc2ccc3c(c2)C(=O)N(c2cccc(-c4nncn4C(C)C)n2)CO3)n1` [Example 4, 3-(6-(4-isopropyl-4H-1,2,4-triazol-3-yl)pyridin-2-yl)-6-(4-methylpyrimidin-2-ylamino)-2,3-dihydro-4H-benzo[e][1,3]oxazin-4-one] was tested. Which IC50 did it give?
**A.** The IC50 was 7.8 nM.

**Q.** Which IC50 does the source give for `Cc1cc2c(cc1-c1cncnc1)C(=O)N(c1cccc(-c3nncn3C(C)C)n1)CO2` [Example 16, 3-(6-(4-isopropyl-4H-1,2,4-triazol-3-yl)pyridin-2-yl)-7-methyl-6-(pyrimidin-5-yl)-2,3-dihydro-4H-benzo[e][1,3]oxazin-4-one] here?
**A.** The IC50 was 20 nM.

**Q.** With `CC(C)n1cnnc1-c1cccc(N2COc3ccc(-c4ccncc4)cc3C2=O)n1` [Example 3, 3-(6-(4-isopropyl-4H-1,2,4-triazol-3-yl)pyridin-2-yl)-6-(pyridin-4-yl)-2,3-dihydro-4H-benzo[e][1,3]oxazin-4-one] as the compound, how does the IC50 read?
**A.** The IC50 was 9.1 nM.

**Q.** For `CC(C)n1cnnc1-c1cccc(N2COc3ccc(-c4cnn(C(F)F)c4)cc3C2=O)n1` [Example 7, 6-(1-(difluoromethyl)-1H-pyrazol-4-yl)-3-(6-(4-isopropyl-4H-1,2,4-triazol-3-yl)pyridin-2-yl)-2,3-dihydro-4H-benzo[e][1,3]oxazin-4-one], which IC50 is on record?
**A.** Its IC50 is 33.1 nM.

**Q.** `CCOC(C)n1cc(-c2ccc3c(c2)C(=O)N(c2cccc(-c4nncn4C(C)C)n2)CO3)cn1` (stereo not shown) [Example 6, 6-(1-(1-ethoxyethyl)-1H-pyrazol-4-yl)-3-(6-(4-isopropyl-4H-1,2,4-triazol-3-yl)pyridin-2-yl)-2,3-dihydro-4H-benzo[e][1,3]oxazin-4-one] was tested. Which IC50 did it give?
**A.** Its IC50 is 29.2 nM.

**Q.** `CC(C)n1cnnc1-c1cccc(N2CSc3ccc(-c4cnn(CC5CC5)c4)cc3C2=O)n1` [Example 21, 6-(1-(cyclopropylmethyl)-1H-pyrazol-4-yl)-3-(6-(4-isopropyl-4H-1,2,4-triazol-3-yl)pyridin-2-yl)-2,3-dihydro-4H-benzo[e][1,3]thiazin-4-one] was tested. Which IC50 did it give?
**A.** Its IC50 is 7.3 nM.

**Q.** Which IC50 does the source give for `Cc1ncc(-c2ccc3c(c2)C(=O)N(c2cccc(-c4nncn4C(C)C)n2)CS3)cn1` [Example 25, 3-(6-(4-isopropyl-4H-1,2,4-triazol-3-yl)pyridin-2-yl)-6-(2-methylpyrimidin-5-yl)-2,3-dihydro-4H-benzo[e][1,3]thiazin-4-one] here?
**A.** The IC50 was 76.8 nM.

**Q.** `CC(C)n1cnnc1-c1cccc(N2CSc3ccc(-c4cnc(C5CC5)nc4)cc3C2=O)n1` [Example 23, 6-(2-cyclopropylpyrimidin-5-yl)-3-(6-(4-isopropyl-4H-1,2,4-triazol-3-yl)pyridin-2-yl)-2,3-dihydro-4H-benzo[e][1,3]thiazin-4-one] was tested. Which IC50 did it give?
**A.** Its IC50 is 23.1 nM.

**Q.** For `Cc1cc2c(cc1-c1cnn(C(C)C)c1)C(=O)N(c1cccc(-c3nncn3C(C)C)n1)CO2` [Example 15, 6-(1-isopropyl-1H-pyrazol-4-yl)-3-(6-(4-isopropyl-4H-1,2,4-triazol-3-yl)pyridin-2-yl)-7-methyl-2,3-dihydro-4H-benzo[e][1,3]oxazin-4-one], which IC50 is on record?
**A.** Its IC50 is 4.5 nM.

**Q.** How did the IC50 turn out when `CSc1ncc(-c2cc3c(cc2C)OCN(c2cccc(-c4nncn4C(C)C)n2)C3=O)cn1` [Example 17, 3-(6-(4-isopropyl-4H-1,2,4-triazol-3-yl)pyridin-2-yl)-7-methyl-6-(2-(methylthio)pyrimidin-5-yl)-2,3-dihydro-4H-benzo[e][1,3]oxazin-4-one] was run?
**A.** The IC50 was 7.8 nM.

**Q.** For `CCOC(C)n1cc(-c2cc3c(cc2C)OCN(c2cccc(-c4nncn4C(C)C)n2)C3=O)cn1` (stereo not shown) [Example 20, 6-(1-(1-ethoxyethyl)-1H-pyrazol-4-yl)-3-(6-(4-isopropyl-4H-1,2,4-triazol-3-yl)pyridin-2-yl)-7-methyl-2,3-dihydro-4H-benzo[e][1,3]oxazin-4-one], which IC50 is on record?
**A.** The IC50 was 3.6 nM.

**Q.** With `Cc1cc2c(cc1-c1cnn(C3CCOC3)c1)C(=O)N(c1cccc(-c3nncn3C(C)C)n1)CO2` (stereo not shown) [Example 18, 3-(6-(4-isopropyl-4H-1,2,4-triazol-3-yl)pyridin-2-yl)-7-methyl-6-(1-(tetrahydrofuran-3-yl)-1H-pyrazol-4-yl)-2,3-dihydro-4H-benzo[e][1,3]oxazin-4-one] as the compound, how does the IC50 read?
**A.** Its IC50 is 10.6 nM.

**Q.** For `CC(C)n1cnnc1-c1cccc(N2COc3ccc(-c4cnn(C5CCOC5)c4)cc3C2=O)n1` (stereo not shown) [Example 5, 3-(6-(4-isopropyl-4H-1,2,4-triazol-3-yl)pyridin-2-yl)-6-(1-(tetrahydrofuran-3-yl)-1H-pyrazol-4-yl)-2,3-dihydro-4H-benzo[e][1,3]oxazin-4-one], which IC50 is on record?
**A.** Its IC50 is 38.8 nM.

**Q.** How did the IC50 turn out when `CC(C)n1cnnc1-c1cccc(N2COc3ccc(-c4cnn(C5CC5)c4)cc3C2=O)n1` [Example 8, 6-(1-cyclopropyl-1H-pyrazol-4-yl)-3-(6-(4-isopropyl-4H-1,2,4-triazol-3-yl)pyridin-2-yl)-2,3-dihydro-4H-benzo[e][1,3]oxazin-4-one] was run?
**A.** Its IC50 is 13.8 nM.

**Q.** How did the IC50 turn out when `CC(C)n1cc(-c2ccc3c(c2)C(=O)N(c2cccc(-c4nncn4C(C)C)n2)CS3)cn1` [Example 22, 6-(1-isopropyl-1H-pyrazol-4-yl)-3-(6-(4-isopropyl-4H-1,2,4-triazol-3-yl)pyridin-2-yl)-2,3-dihydro-4H-benzo[e][1,3]thiazin-4-one] was run?
**A.** The IC50 was 6.1 nM.

**Q.** Which IC50 does the source give for `CC(C)CCn1cc(-c2ccc3c(c2)C(=O)N(c2cccc(-c4nncn4C(C)C)n2)CO3)cn1` [Example 11, 6-(1-isopentyl-1H-pyrazol-4-yl)-3-(6-(4-isopropyl-4H-1,2,4-triazol-3-yl)pyridin-2-yl)-2,3-dihydro-4H-benzo[e][1,3]oxazin-4-one] here?
**A.** The IC50 was 18.5 nM.

**Q.** Which IC50 does the source give for `Cc1cc2c(cc1-c1cnn(CC3CC3)c1)C(=O)N(c1cccc(-c3nncn3C(C)C)n1)CO2` [Example 14, 6-(1-(cyclopropylmethyl)-1H-pyrazol-4-yl)-3-(6-(4-isopropyl-4H-1,2,4-triazol-3-yl)pyridin-2-yl)-7-methyl-2,3-dihydro-4H-benzo[e][1,3]oxazin-4-one] here?
**A.** The IC50 was 4.4 nM.

**Q.** Which IC50 does the source give for `CC(C)n1cnnc1-c1cccc(N2COc3ccc(-n4cnc(C5CC5)c4)cc3C2=O)n1` [Example 19, 6-(4-cyclopropyl-1H-imidazol-1-yl)-3-(6-(4-isopropyl-4H-1,2,4-triazol-3-yl)pyridin-2-yl)-2,3-dihydro-4H-benzo[e][1,3]oxazin-4-one] here?
**A.** The IC50 was 4 nM.

**Q.** Which IC50 does the source give for `CC(C)n1cnnc1-c1cccc(N2COc3ccc(Nc4nccc(C(F)F)n4)cc3C2=O)n1` [Example 10, 6-(4-(difluoromethyl)pyrimidin-2-ylamino)-3-(6-(4-isopropyl-4H-1,2,4-triazol-3-yl)pyridin-2-yl)-2,3-dihydro-4H-benzo[e][1,3]oxazin-4-one] here?
**A.** The IC50 was 7.2 nM.

**Q.** Which IC50 does the source give for `CC(C)n1cnnc1-c1cccc(N2COc3ccc(-c4ccc(Cn5cccn5)cc4)cc3C2=O)n1` [Example 13, 6-(4-((1H-pyrazol-1-yl)methyl)phenyl)-3-(6-(4-isopropyl-4H-1,2,4-triazol-3-yl)pyridin-2-yl)-2,3-dihydro-4H-benzo[e][1,3]oxazin-4-one] here?
**A.** Its IC50 is 46.4 nM.
